Experiment: in vitro
Details: human, hela cells, % viability

Q: With `Cn1c(=O)c2c(nc(CN3CCCCC3)n2CCN2CCOCC2)n(C)c1=O` [CBK269281] as the compound, how does the viability at 28.5 h, 10 µM read?
A: 99.2%

Q: Which viability at 28.5 h, 10 µM does the source give for `COc1ccc(-c2c3c(nc4sc(C(=O)N5CCOCC5)c(N)c24)CC(C)(C)CC3=O)cc1` [CBK131884] here?
A: 91.7%

Q: Which viability at 28.5 h, 10 µM does the source give for `COc1cc(C2=NS(=O)(=O)NC3=C2CCCC3)cc(OC)c1OC` [CBK010423] here?
A: 90.3%

Q: Which viability at 28.5 h, 10 µM does the source give for `O=C(Nc1ccc(N2CCN(Cc3ccccc3F)CC2)cc1)c1cccnc1` [CBK267250] here?
A: 106%

Q: Which viability at 28.5 h, 10 µM does the source give for `CCCCOc1ccc(NC(=O)NCCc2cccs2)cc1` [CBK045202] here?
A: 105%

Q: Which viability at 28.5 h, 10 µM does the source give for `COc1cc(-c2nc(C(C)=O)c(C)n2O)cc(OC)c1OC` [CBK270083] here?
A: 95.6%

Q: For `Cc1cc(C)n(CCC(=O)N2CCC(c3ccncc3)CC2)n1` [CBK283529], which viability at 28.5 h, 10 µM is on record?
A: 94.1%

Q: With `Cc1ccc2oc(-c3ccc(C)c(NC(=S)NC(=O)c4ccc([N+](=O)[O-])cc4)c3)nc2c1` [CBK263897] as the compound, how does the viability at 28.5 h, 10 µM read?
A: 90.4%

Q: Which viability at 28.5 h, 10 µM does the source give for `O=C1NC2(CCCCC2)C(=O)N1c1ccc(F)cc1F` [CBK281945] here?
A: 111%

Q: Which viability at 28.5 h, 10 µM does the source give for `Cc1cccnc1C1(O)CCN(C(=O)Cc2ccccc2Cl)CC1` [CBK283682] here?
A: 98.7%

Q: For `COc1ccc(N2CCN(CC(=O)Nc3ccc(Cl)cc3C(=O)c3ccccc3)CC2)cc1` [CBK265743], which viability at 28.5 h, 10 µM is on record?
A: 90.7%

Q: Which viability at 28.5 h, 10 µM does the source give for `Cc1csc(C(Cc2ccsc2)NC(=O)CCn2cccn2)n1` (stereo not drawn) [CBK285149] here?
A: 93.7%

Q: Which viability at 28.5 h, 10 µM does the source give for `O=C(Cc1cccs1)N1CCC(c2cc3ncccc3[nH]2)CC1` [CBK283393] here?
A: 86.5%

Q: For `CS(=O)(=O)N1CCC2(CC1)NC(=O)N(Cc1ccccc1)C2=O` [CBK287656], which viability at 28.5 h, 10 µM is on record?
A: 100%

Q: For `Nc1ncnc2nc(-c3ccncc3)nn12` [CBK288550], which viability at 28.5 h, 10 µM is on record?
A: 102%

Q: For `COc1cccc(C(=O)C2=C(O)C(=O)N(CCCn3ccnc3)C2c2cccc(F)c2)c1` (stereo not drawn) [CBK266419], which viability at 28.5 h, 10 µM is on record?
A: 107%

Q: For `CC1(C)CC(N(Cc2c[nH]cn2)Cc2ccccc2F)CC(C)(C)N1` [CBK282579], which viability at 28.5 h, 10 µM is on record?
A: 92.9%

Q: For `N#Cc1ccc(N)c2ccccc12` [CBK015754], which viability at 28.5 h, 10 µM is on record?
A: 90.6%

Q: For `Cc1cc(C(=O)NCCn2ccnc2C)c2cccc(Cl)c2n1` [CBK282460], which viability at 28.5 h, 10 µM is on record?
A: 95.6%

Q: Which viability at 28.5 h, 10 µM does the source give for `CCOc1ccc(-c2csc(NC(=O)c3cccnc3)n2)cc1` [CBK094747] here?
A: 89.2%

Q: For `Cn1nc(NC(=O)c2cnccn2)c2c(N3CCOCC3)cccc21` [CBK306716], which viability at 28.5 h, 10 µM is on record?
A: 100%

Q: For `O=C(c1ccccc1Br)N1CCN(c2ccc([N+](=O)[O-])c(NCc3cccnc3)c2)CC1` [CBK265735], which viability at 28.5 h, 10 µM is on record?
A: 100%

Q: For `Cc1ccc(Cl)c(OC(C)C(=O)N(CCCO)Cc2ccncc2)c1` (stereo not drawn) [CBK305432], which viability at 28.5 h, 10 µM is on record?
A: 109%

Q: With `O=C(O)c1cccc(NC(=S)NC(=O)C(c2ccccc2)c2ccccc2)c1` [CBK265053] as the compound, how does the viability at 28.5 h, 10 µM read?
A: 107%

Q: With `O=C(CCc1cccnc1)N1CCC(F)CC1` [CBK200275] as the compound, how does the viability at 28.5 h, 10 µM read?
A: 103%

Q: Which viability at 28.5 h, 10 µM does the source give for `COc1cc2nc3c4ccccc4n(CC(=O)O)c3nc2cc1OC` [CBK263626] here?
A: 86.8%

Q: With `FC(F)(F)c1ccnc(OCCCc2ccncc2)n1` [CBK115799] as the compound, how does the viability at 28.5 h, 10 µM read?
A: 97.5%

Q: With `CC(C)(CO)CCCn1cncc1-c1cnn(C2CCCCC2)c1` [CBK281779] as the compound, how does the viability at 28.5 h, 10 µM read?
A: 86.7%

Q: For `N=c1n(-c2ccccc2)c(O)c(C(c2ccncc2)c2c(O)n(-c3ccccc3)c(=N)n(-c3ccccc3)c2=O)c(=O)n1-c1ccccc1` (stereo not drawn) [CBK261438], which viability at 28.5 h, 10 µM is on record?
A: 82%

Q: Which viability at 28.5 h, 10 µM does the source give for `O=C(Nc1ccc2c(c1)oc1ccccc12)C1CCCO1` (stereo not drawn) [CBK270168] here?
A: 81.9%

Q: Which viability at 28.5 h, 10 µM does the source give for `COc1ncc(-c2ccc(NCCn3cc[nH]c3=O)nc2)c(OC)n1` [CBK037719] here?
A: 88.9%

Q: For `COc1ccc(C(C)C)cc1-c1cnc2[nH]c(=O)n(C3CC3)c2n1` [CBK064915], which viability at 28.5 h, 10 µM is on record?
A: 91.2%

Q: Which viability at 28.5 h, 10 µM does the source give for `Cc1nc2cc(-c3nccn3C)nn2c(N2CCN(c3ccc(O)cc3)CC2)c1C` [CBK286427] here?
A: 92.8%

Q: Which viability at 28.5 h, 10 µM does the source give for `O=c1c2c3c(sc2ncn1CC(O)CO)CCCC3` (stereo not drawn) [CBK269448] here?
A: 94.8%

Q: With `N#C/C(=C\c1ccc(OCC(=O)c2ccc(F)cc2)cc1)c1nc(-c2cc3ccccc3oc2=O)cs1` [CBK266769] as the compound, how does the viability at 28.5 h, 10 µM read?
A: 90.6%

Q: Which viability at 28.5 h, 10 µM does the source give for `CC(=O)N1C2CCC1CC(O)(Cn1ccc3ccnc(Cl)c31)C2` (stereo not drawn) [CBK284868] here?
A: 106%

Q: For `CSc1nc2ccc(Nc3cc(C)nc4ncnn34)cc2s1` [CBK297724], which viability at 28.5 h, 10 µM is on record?
A: 105%

Q: With `CC(=O)Cn1cnc2c(cnn2-c2cccc(Cl)c2)c1=O` [CBK287692] as the compound, how does the viability at 28.5 h, 10 µM read?
A: 84.4%

Q: With `OC(c1ccncc1)C(O)c1ccncc1` (stereo not drawn) [CBK024254] as the compound, how does the viability at 28.5 h, 10 µM read?
A: 87.1%

Q: With `COc1ccc(COC(=O)C2CC(=O)N(Cc3ccc(C)cc3)C2)cc1` (stereo not drawn) [CBK296624] as the compound, how does the viability at 28.5 h, 10 µM read?
A: 89%

Q: With `Cc1noc(C)c1S(=O)(=O)Nc1ccc(C(=O)Nc2ccc(F)cc2)cc1` [CBK034410] as the compound, how does the viability at 28.5 h, 10 µM read?
A: 95.1%

Q: With `CSc1nn(C)c(=S)c2c3c(oc12)CCC3` [CBK019474] as the compound, how does the viability at 28.5 h, 10 µM read?
A: 92.3%

Q: Which viability at 28.5 h, 10 µM does the source give for `CCCC/C=C/c1cnc2[nH]c(=O)n(Cc3cccs3)c2n1` [CBK064373] here?
A: 83.6%

Q: Which viability at 28.5 h, 10 µM does the source give for `O=C(Nc1ccc(NC(=O)c2ccccc2O)cc1)c1cnc(-c2ccccc2)c(-c2ccncc2)c1` [CBK037490] here?
A: 80.5%

Q: For `CNC(=O)CSc1nccnc1N1CCCC1` [CBK107748], which viability at 28.5 h, 10 µM is on record?
A: 93.6%

Q: For `Cc1cc(/C=C(/C#N)c2nc3ccccc3[nH]2)c(C)n1-c1ccc(S(N)(=O)=O)cc1` [CBK264769], which viability at 28.5 h, 10 µM is on record?
A: 77.8%

Q: With `CC(=O)c1ccc(OCC(=O)Nc2cnc(-c3cccc(C)c3)c(-c3ccc(N)cc3)n2)cc1` [CBK036722] as the compound, how does the viability at 28.5 h, 10 µM read?
A: 107%

Q: With `CCN(CCO)C(=O)C(C)Oc1cc(C)ccc1Cl` (stereo not drawn) [CBK306019] as the compound, how does the viability at 28.5 h, 10 µM read?
A: 86.6%

Q: For `CN(C)CCn1ccnc1C1CCCN(C(=O)Cc2cccc(Cl)c2)C1` (stereo not drawn) [CBK307272], which viability at 28.5 h, 10 µM is on record?
A: 92.3%

Q: With `O=S(=O)(c1ccccc1)N1C[C@@H]2CCCCN(CC3CC3)[C@@H]2C1` [CBK285501] as the compound, how does the viability at 28.5 h, 10 µM read?
A: 109%

Q: Which viability at 28.5 h, 10 µM does the source give for `COc1cc(NC(=O)c2ccc3c(c2)C(=O)N(Cc2cccnc2)C3=O)c(C(=O)O)cc1OC` [CBK266802] here?
A: 88.1%

Q: For `CCOc1ccc(-c2nc(CC(=O)O)cs2)cc1` [CBK295300], which viability at 28.5 h, 10 µM is on record?
A: 87.7%

Q: With `CN1CCN(C(=S)c2ccc(OCC(=O)Nc3cccc(C(F)(F)F)c3)cc2)CC1` [CBK266826] as the compound, how does the viability at 28.5 h, 10 µM read?
A: 92.2%

Q: For `Nc1nc(OCc2cccs2)cnc1-c1ccsc1` [CBK145161], which viability at 28.5 h, 10 µM is on record?
A: 95.8%

Q: For `C[S+]([O-])CCNC(=O)c1cc(-c2cccs2)no1` (stereo not drawn) [CBK282563], which viability at 28.5 h, 10 µM is on record?
A: 84.5%

Q: For `CC(C)(C)OC(=O)NCCC(=O)Oc1ccc2c3c(c(=O)oc2c1)CCCC3` [CBK265008], which viability at 28.5 h, 10 µM is on record?
A: 89.3%

Q: Which viability at 28.5 h, 10 µM does the source give for `O=C(NCc1ccco1)c1nccnc1-c1ccc(COc2ccc3c(c2)CCCC3)cc1` [CBK050851] here?
A: 89.8%

Q: For `COc1ccc(-c2cnc(NCC3CC3)c(C(=O)NCc3ccco3)c2)cc1` [CBK076283], which viability at 28.5 h, 10 µM is on record?
A: 96.3%

Q: With `O=C1OCCN1CCN1CCCN(Cc2ccc(F)cc2)CC1` [CBK304023] as the compound, how does the viability at 28.5 h, 10 µM read?
A: 103%

Q: Which viability at 28.5 h, 10 µM does the source give for `O=C(CC1Sc2ccccc2NC1=O)Nc1ccc([N+](=O)[O-])c(F)c1` (stereo not drawn) [CBK264717] here?
A: 85.5%

Q: With `Cc1ccccc1-c1ccccc1CC1(C(N)=O)CCN(C(=O)Cc2ccccc2)CC1` [CBK285724] as the compound, how does the viability at 28.5 h, 10 µM read?
A: 106%

Q: For `CCCc1ccc(S(=O)(=O)n2ccn(-c3ccc4c(c3)OCO4)c2=O)cc1` [CBK106634], which viability at 28.5 h, 10 µM is on record?
A: 94.6%

Same assay, conditions: human, hela cells, % viability, bulk resorufin, single well

Q: Which viability at 28.5 h, 10 µM does the source give for `O=C(O)c1cccc(NC(=O)c2cc([N+](=O)[O-])cc([N+](=O)[O-])c2)c1` [CBK261555] here?
A: 92.8%
